Data taken from article PMC9833666, “Designing and identifying β-hairpin peptide macrocycles with antibiotic potential” (Science Advances, 2023).
Where two headings read alike, the source gives them in different places. Bridge positions count the residues as written; N and C are the ends. Ends that are not written are not given here. Peptide text beside a SMILES is read from it.

What was measured:
[1] = test system: Escherichia coli W3110; format: cell-based; settings: for Ec W3110 MIC MH: E. coli W3110, MH medium; for Ec W3110 MIC RPMI: E. coli W3110, RPMI medium
[2] = test system: Single-donor human red blood cells; test: Hemolysis assay; format: cell-based
Protocol: Single-donor human red blood cells (Innovative Research, no. IWB3ALS) were washed in PBS and adjusted to a concentration of 1 × 10^9 cells/ml. Each peptide was added individually to 200 μl of cells at a concentration of either 300 μg/ml (SySA library) or 128 μg/ml (SySA-5 optimization library) in a 96-well polypropylene plate (Corning, 3879). PBS alone and 1% Triton X-100 were used for background normalization and 100% hemolysis, respectively. Each reaction was set up in triplicate. Plates were incubated for 3 hours at 37°C. Following incubation, samples were centrifuged at 800g for 20 min, and 100 μl of supernatant was transferred to a flat-bottom 96-well plate (Genesse, 25-104). Percent hemolysis for each sample was determined by normalizing the absorbance at 540 nm for each sample to the average background and dividing by the average absorbance for 1% Triton X-100 (100% hemolysis). Error bars represent 1 SD of triplicate samples.

[3] = test system: Acinetobacter baumannii AB5075
Protocol: MICs were performed by a modifiedClinical and Laboratory Standards Institute) procedure. […] Separately, E. coli W3110 or A. baumannii AB5075 was grown overnight in 5 ml of standard MH at 37°C. Cells from these cultures were diluted to a concentration of 5 × 10^5 to 6 × 10^5 cells/ml in either standard MH, MHII, RPMI, or fetal bovine serum, and 90 μl was added to each well of the 96-well plate containing diluted peptide. Plates were wrapped twice in parafilm and incubated at 37°C for 18 to 24 hours. Wells were examined by eye against wells with no bacteria for signs of growth. MICs were reported as the minimum concentration with no observable growth. In cases where triplicate samples differed, the concentration supported by the median of the three replicates was reported. […]
For consistency, all SynCH peptides were resuspended at 10 mg/ml in water. Peptides were then visually inspected for any lack of solubility (Data File S1). […]
We had this library commercially synthesized and tested its ability to inhibit the growth of Acinetobacter baumannii AB5075, a clinically isolated Carbapenem Resistant Acinetobacter (CRA) pathogen. MICs were performed in MH as well as 100% FBS, which is likely more representative of the in vivo environment. […]

Compound | Ec W3110 MIC MH [1] | Ec W3110 MIC RPMI [1] | hemolysis [2] | also measured
CVRVRVNNRGGGVRITLQVC (disulfide 1-20 (inferred)) [SySA-24] | > 256 µg/mL | > 256 µg/mL | 0.38% | 
CRVKINIDNRSRRVKLQVQC (disulfide 1-20 (inferred)) [SySA-6] | > 256 µg/mL | > 256 µg/mL | 0.66% | 
CLRIRVNNRGSGLRISVEVC (disulfide 1-20 (inferred)) [SySA-22] | > 256 µg/mL | > 256 µg/mL | 0.48% | 
CC(C)C[C@@H]1NC(=O)[C@H](CCCNC(=N)N)NC(=O)[C@H](CCCNC(=N)N)NC(=O)[C@H](CCCNC(=N)N)NC(=O)CNC(=O)[C@H](CC(N)=O)NC(=O)[C@H](CC(N)=O)NC(=O)[C@H](CC(C)C)NC(=O)[C@H](CCCNC(=N)N)NC(=O)[C@H](C(C)C)NC(=O)[C@H](CCCNC(=N)N)NC(=O)[C@H](C(C)C)NC(=O)[C@@H](N)CSSC[C@@H](C(=O)O)NC(=O)[C@H](C(C)C)NC(=O)[C@H](CCC(N)=O)NC(=O)[C@H](CC(C)C)NC(=O)[C@H](CO)NC(=O)[C@H](C(C)C)NC(=O)[C@H](CCCCN)NC1=O [SyPA-1] (H-CVRVRLNNGRRRLKVSLQVC-OH; disulfide 1-20) |  |  |  | %Hemo [2]: 1.30%
CRIRIDIDNRGRTVRLEVQC (disulfide 1-20 (inferred)) [SySA-28] | > 256 µg/mL | > 256 µg/mL | 0.0423% | 
CVRVRLDNRGGGLRISLEVC (disulfide 1-20 (inferred)) [SySA-2] | > 256 µg/mL | > 256 µg/mL | 0.57% | 
CRVRVNINNRGGTVKLQLQC (disulfide 1-20 (inferred)) [SySA-13] | > 256 µg/mL | > 256 µg/mL | 0.91% | 
CRVRINIDNRSGRVKLEVQC (disulfide 1-20 (inferred)) [SySA-87] | > 256 µg/mL | > 256 µg/mL | 4.63% | 
CVRIRLNNGGSGVKVTVEVC (disulfide 1-20 (inferred)) [SySA-85] | > 256 µg/mL | > 256 µg/mL | 1.81% | 
CRVRININNGGRRVKLEVQC (disulfide 1-20 (inferred)) [SySA-32] | > 256 µg/mL | > 256 µg/mL | 0.0319% | 
CLTIRVDNRGSRVRITLEVC (disulfide 1-20 (inferred)) [SySA-70] | > 256 µg/mL | > 256 µg/mL | 0.92% | 
Protegrin-1 [reference compound] |  |  |  | MIC ([1]; W3110): 0.5 to 4 µg/mL; W3110 MIC MH ([1]; W3110): 0.5 µg/mL; W3110 MIC RPMI ([1]; W3110): 0.5 µg/mL; AB5075 MIC FBS ([3]; 100% fetal bovine serum, median of triplicate): 32 µg/mL; AB5075 MIC MH ([3]; Mueller-Hinton, median of triplicate): 1 µg/mL
CC[C@H](C)[C@@H]1NC(=O)[C@H](CCCNC(=N)N)NC(=O)[C@H](CC(C)C)NC(=O)[C@@H](N)CSSC[C@@H](C(=O)O)NC(=O)[C@H](C(C)C)NC(=O)[C@H](CCC(N)=O)NC(=O)[C@H](C(C)C)NC(=O)[C@H](CO)NC(=O)[C@H](C(C)C)NC(=O)[C@H](CCCNC(=N)N)NC(=O)[C@H](CC(C)C)NC(=O)CNC(=O)[C@H](CCCNC(=N)N)NC(=O)[C@H](CCCNC(=N)N)NC(=O)CNC(=O)[C@H](CC(N)=O)NC(=O)[C@H](CC(N)=O)NC(=O)[C@H](CC(C)C)NC(=O)[C@H](CCCNC(=N)N)NC1=O [SyPA-4] (H-CLRIRLNNGRRGLRVSVQVC-OH; disulfide 1-20) |  |  |  | %Hemo [2]: 1.59%
CC(C)C[C@@H]1NC(=O)CNC(=O)[C@H](CCCNC(=N)N)NC(=O)[C@H](CCCNC(=N)N)NC(=O)[C@H](CCCNC(=N)N)NC(=O)[C@H](CC(N)=O)NC(=O)[C@H](CC(N)=O)NC(=O)[C@H](CC(C)C)NC(=O)[C@H](CCCNC(=N)N)NC(=O)[C@H](C(C)C)NC(=O)[C@H]([C@@H](C)O)NC(=O)[C@H](C(C)C)NC(=O)[C@@H](N)CSSC[C@@H](C(=O)O)NC(=O)[C@H](C(C)C)NC(=O)[C@H](CCC(N)=O)NC(=O)[C@H](CC(C)C)NC(=O)[C@H](CO)NC(=O)[C@H](C(C)C)NC(=O)[C@H](CCCNC(=N)N)NC1=O [SyPA-2] (H-CVTVRLNNRRRGLRVSLQVC-OH; disulfide 1-20) |  |  |  | %Hemo [2]: 3.75%
CC[C@H](C)[C@@H]1NC(=O)[C@H](CCCNC(=N)N)NC(=O)[C@H](CC(C)C)NC(=O)[C@@H](N)CSSC[C@@H](C(=O)O)NC(=O)[C@H](C(C)C)NC(=O)[C@H](CCC(N)=O)NC(=O)[C@H](CC(C)C)NC(=O)[C@H](CO)NC(=O)[C@H](C(C)C)NC(=O)[C@H](CCCNC(=N)N)NC(=O)[C@H](CC(C)C)NC(=O)CNC(=O)[C@H](CCCNC(=N)N)NC(=O)[C@H](CCCNC(=N)N)NC(=O)[C@H](CCCNC(=N)N)NC(=O)[C@H](CC(=O)O)NC(=O)[C@H](CC(N)=O)NC(=O)[C@H](CC(C)C)NC(=O)[C@H](CCCNC(=N)N)NC1=O [SyPA-5] (H-CLRIRLNDRRRGLRVSLQVC-OH; disulfide 1-20) |  |  |  | %Hemo [2]: 1.89%
CC(C)C[C@@H]1NC(=O)[C@H](CCCNC(=N)N)NC(=O)[C@H](C(C)C)NC(=O)[C@H](CCCCN)NC(=O)[C@H](C(C)C)NC(=O)[C@H](CCCNC(=N)N)NC(=O)[C@H](CCCNC(=N)N)NC(=O)[C@H](CCCNC(=N)N)NC(=O)[C@H](CCCNC(=N)N)NC(=O)[C@H](CC(N)=O)NC(=O)[C@H](CCCNC(=N)N)NC(=O)[C@H](CC(C)C)NC(=O)[C@H](CCCNC(=N)N)NC(=O)[C@H](C(C)C)NC(=O)[C@H](CCCNC(=N)N)NC(=O)[C@@H](N)CSSC[C@@H](C(=O)O)NC(=O)[C@H](CCCNC(=N)N)NC1=O [SySA-5.7] (H-CRVRLRNRRRRVKVRLRC-OH; disulfide 1-18) |  |  |  | AB5075 MIC FBS ([3]; AB5075): > 128 µg/mL; AB5075 MIC MH ([3]; AB5075): 8 µg/mL
CC(C)C[C@@H]1NC(=O)[C@H](CO)NC(=O)[C@H](C(C)C)NC(=O)[C@H](CCCCN)NC(=O)[C@H](CCCNC(=N)N)NC(=O)[C@H](CCCNC(=N)N)NC(=O)[C@H](CCCNC(=N)N)NC(=O)[C@H](CC(N)=O)NC(=O)[C@H](CC(C)C)NC(=O)[C@H](CCCNC(=N)N)NC(=O)[C@H](C(C)C)NC(=O)[C@H](CCCNC(=N)N)NC(=O)[C@H](CC(C)C)NC(=O)[C@@H](N)CSSC[C@@H](C(=O)O)NC(=O)[C@H](C(C)C)NC(=O)[C@H](CCC(N)=O)NC1=O [SySA-5.18] (H-CLRVRLNRRRKVSLQVC-OH; disulfide 1-17) |  |  |  | AB5075 MIC FBS ([3]; AB5075): 128 µg/mL; AB5075 MIC MH ([3]; AB5075): 8 µg/mL
CC(C)C[C@@H]1NC(=O)[C@H](CCCNC(=N)N)NC(=O)CNC(=O)[C@H](CCCNC(=N)N)NC(=O)[C@H](CCCNC(=N)N)NC(=O)[C@H](CC(N)=O)NC(=O)[C@H](CC(N)=O)NC(=O)[C@H](CC(C)C)NC(=O)[C@H](CCCNC(=N)N)NC(=O)[C@H](C(C)C)NC(=O)[C@H](CCCNC(=N)N)NC(=O)[C@H](CC(C)C)NC(=O)[C@@H](N)CSSC[C@@H](C(=O)O)NC(=O)[C@H](C(C)C)NC(=O)[C@H](CCC(N)=O)NC(=O)[C@H](CC(C)C)NC(=O)[C@H](CO)NC(=O)[C@H](C(C)C)NC(=O)[C@H](CCCNC(=N)N)NC1=O [SyPA-8] (H-CLRVRLNNRRGRLRVSLQVC-OH; disulfide 1-20) |  |  |  | %Hemo [2]: 2.87%
CC(C)C[C@@H]1NC(=O)[C@H](CCCNC(=N)N)NC(=O)[C@H](C(C)C)NC(=O)[C@H](CCCCN)NC(=O)[C@H](CCCNC(=N)N)NC(=O)[C@H](CCCNC(=N)N)NC(=O)[C@H](CCCNC(=N)N)NC(=O)[C@H](CCCNC(=N)N)NC(=O)[C@H](CC(C)C)NC(=O)[C@H](CCCNC(=N)N)NC(=O)[C@H](C(C)C)NC(=O)[C@H](CCCNC(=N)N)NC(=O)[C@H](CC(C)C)NC(=O)[C@@H](N)CSSC[C@@H](C(=O)O)NC(=O)[C@H](C(C)C)NC(=O)[C@H](CCCNC(=N)N)NC1=O [SySA-5.20] (H-CLRVRLRRRRKVRLRVC-OH; disulfide 1-17) |  |  |  | AB5075 MIC FBS ([3]; AB5075): 128 µg/mL; AB5075 MIC MH ([3]; AB5075): 4 µg/mL
CC(C)C[C@@H]1NC(=O)[C@H](CO)NC(=O)[C@H](C(C)C)NC(=O)[C@H](CCCCN)NC(=O)[C@H](CCCNC(=N)N)NC(=O)CNC(=O)[C@H](CCCNC(=N)N)NC(=O)[C@H](CCCNC(=N)N)NC(=O)[C@H](CC(N)=O)NC(=O)[C@H](CC(C)C)NC(=O)[C@H](CCCNC(=N)N)NC(=O)[C@H](C(C)C)NC(=O)[C@H](CCCNC(=N)N)NC(=O)[C@@H](N)CSSC[C@@H](C(=O)O)NC(=O)[C@H](CCC(N)=O)NC1=O [SySA-5.23] (H-CRVRLNRRGRKVSLQC-OH; disulfide 1-16) |  |  |  | AB5075 MIC FBS ([3]; AB5075): > 128 µg/mL; AB5075 MIC MH ([3]; AB5075): 8 µg/mL
